This note sets out measurements from US8455475B2 (Gruenenthal GmbH, priority 2009, dated 2013).

Test [1] deals with T1, human B1R (bradykinin receptor 1) (Homo sapiens, UniProt P46663).
T1 construct: expressed in transfected cells; host or cells: CHO K1 cells
T1 sequence (P46663 1-353): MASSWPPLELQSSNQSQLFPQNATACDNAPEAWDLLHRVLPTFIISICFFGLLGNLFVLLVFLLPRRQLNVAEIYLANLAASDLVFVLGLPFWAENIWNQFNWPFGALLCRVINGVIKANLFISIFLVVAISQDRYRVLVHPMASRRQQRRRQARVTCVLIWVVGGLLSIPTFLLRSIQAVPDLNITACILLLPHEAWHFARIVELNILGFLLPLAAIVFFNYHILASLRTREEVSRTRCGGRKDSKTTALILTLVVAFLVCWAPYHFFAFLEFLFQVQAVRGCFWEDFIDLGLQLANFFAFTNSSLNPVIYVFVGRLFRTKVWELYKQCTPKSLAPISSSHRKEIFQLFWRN
Put plainly: FLIPR Ca2+ assay (Fluo-4) on CHO K1 cells stably transfected with the human B1R gene (hB1R cells): % inhibition at 10 μM / IC50, agonist Lys-Des-Arg9-bradykinin. In kind it is cell-based. The note with it: CHO-K1, human B1R. Summed up: (§1)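 Antagonism is measured as the drop in peak Fluo-4 Ca2+ signal when the EC80 agonist follows 10–20 min compound exposure. The single-point screen uses 10 μM; IC50 uses several concentrations. Values are given as % of maximal achievable inhibition.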

Test [2] has as its target T2, rat B1R (bradykinin receptor 1) (Rattus norvegicus, UniProt P97583).
T2 construct: expressed in transfected cells; host or cells: CHO K1 cells
T2 sequence (P97583 1-337): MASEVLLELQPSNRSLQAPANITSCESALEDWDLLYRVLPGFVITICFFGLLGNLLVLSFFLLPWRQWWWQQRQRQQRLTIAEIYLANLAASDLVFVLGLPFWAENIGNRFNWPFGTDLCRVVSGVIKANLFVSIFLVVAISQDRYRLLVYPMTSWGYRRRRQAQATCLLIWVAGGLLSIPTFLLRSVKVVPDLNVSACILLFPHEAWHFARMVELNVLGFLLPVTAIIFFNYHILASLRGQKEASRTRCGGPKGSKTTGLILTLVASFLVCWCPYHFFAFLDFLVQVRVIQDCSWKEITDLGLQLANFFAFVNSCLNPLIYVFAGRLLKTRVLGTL
Put plainly: FLIPR Ca2+ assay (Fluo-4) on CHO K1 cells stably transfected with the B1R gene of the rat (rB1R cells): % inhibition at 10 μM / IC50, agonist Des-Arg9-bradykinin. The note with it: CHO-K1, rat B1R. In kind it is cell-based. Summed up: as §1

As for `O=C(c1ccc2c(c1)C(N(C(=O)c1ccccc1Cl)C1CC1)CC2)N1CCC2(CCN(c3ccncc3)CC2)C1` (centres unmarked) [Ind_CC-118, 2-chloro-N-cyclopropyl-N-[6-(8-pyridin-4-yl-2,8-diazaspiro[4.5]decane-2-carbonyl)-2,3-dihydro-1H-inden-1-yl]-benzamide], the inhibition at 10 µM in test [1] was determined as 100%; in test [2], 103%.
In the same order, the values of `O=C(c1ccc2c(c1)C(N(C(=O)c1ccccc1Cl)C1CC1)CC2)N1CCC2(CC1)CCN(c1ccncc1)C2` (centres unmarked) [Ind_CC-119, 2-chloro-N-cyclopropyl-N-[6-(2-pyridin-4-yl-2,8-diazaspiro[4.5]decane-8-carbonyl)-2,3-dihydro-1H-inden-1-yl]-benzamide] are 99% and 104%.
Taken in the same sequence, the figures for `O=C(NC1CCCCc2ccc(C(=O)N3CCC4(CC3)CCN(c3ccncc3)CC4)cc21)c1ccccc1Cl` (centres unmarked) [Ind_CC-120, 2-chloro-N-[3-(9-pyridin-4-yl-3,9-diazaspiro[5.5]undecane-3-carbonyl)-6,7,8,9-tetrahydro-5H-benzocyclohepten-5-yl]-benzamide] were 56% and 99%.
Taken in the same sequence, the figures for `O=C(NC1CCCCc2ccc(C(=O)N3CCC4(CC3)CCN(c3cccnc3)CC4)cc21)c1ccccc1Cl` (centres unmarked) [Ind_CC-121, 2-chloro-N-[3-(9-pyridin-3-yl-3,9-diazaspiro[5.5]undecane-3-carbonyl)-6,7,8,9-tetrahydro-5H-benzocyclohepten-5-yl]-benzamide] were 46% and 103%.
